Laboratory results: EP4793274A1, “SALT AND CRYSTAL FORM OF KIF18A INHIBITOR COMPOUND, PREPARATION METHOD THEREFOR AND USE THEREOF” (Hubei Bio-Pharmaceutical Industrial Technological Institute …, priority 2023, dated 2025)

Experiments:
Assay type in all cases: physicochemical
[1] = Dynamic solubility at 37 °C in H2O, SGF, FaSSIF and FeSSIF (HPLC concentration, pH of filtrate, XRPD of residual solid); settings: listed as Crystal form E of methanesulfonate; for S: solubility: feeding concentration 10 mg/mL; for FC: crystal form change: XRPD of residual solid; for pH: pH of filtrate
Procedure: 0.82 mL of glacial acetic acid and 1.18 g of NaCl were added to a 100 mL volumetric flask and completely dissolved by addition of purified water.
The solubility of each sample in H2O, SGF, FaSSIF, and FeSSIF was determined at different time points (1 h, 2 h, 4 h, and 24 h). […] 137-156. […] Table C-2. Summary of dynamic solubility test results at 37 °C

[2] = Hygroscopicity by dynamic vapor sorption (DVS); settings: 25 °C/80% RH
Procedure: Dynamic vapor sorption (DVS) curves were acquired on a DVS IntrInsic from Surface Measurement Systems (SMS). The relative humidity at 25 °C was corrected with the deliquescence points of LiCl, Mg(NO3)2, and KCl. Table A-5. DVS test parameters
The percentage changes in mass of the samples when the humidity changed (0% RH to 95% RH) at a constant temperature of 25 °C were collected. 157-166.

[3] = Solid state stability (XRPD and HPLC purity)
Text: 167-171. […] Table C-3. Summary of solid state stability evaluation

[4] = 80 °C/sealed, 1 day, listed as Crystal form E of methanesulfonate

SMILES: Cc1cc(-c2cnn(-c3ccc(NS(=O)(=O)CCO)cc3N3CCC4(CC3)CC4)c2)nc(N2CCC(F)(F)CC2)n1 [crystal form E of the methanesulfonate]
- S: solubility ([1]; FaSSIF, 1 h, 60 min): 60.4 µg/mL
- S: solubility ([1]; FaSSIF, 2 h, 120 min): 46.6 µg/mL
- S: solubility ([1]; FaSSIF, 4 h, 240 min): 35.9 µg/mL
- S: solubility ([1]; FaSSIF, 24 h, 1440 min): 18.7 µg/mL
- S: solubility ([1]; FeSSIF, 1 h, 60 min): 194.4 µg/mL
- S: solubility ([1]; FeSSIF, 2 h, 120 min): 183.4 µg/mL
- S: solubility ([1]; FeSSIF, 4 h, 240 min): 172.5 µg/mL
- S: solubility ([1]; FeSSIF, 24 h, 1440 min): 89.9 µg/mL
- S: solubility ([1]; H2O, 1 h, 60 min): 18.5 µg/mL
- S: solubility ([1]; H2O, 2 h, 120 min): 14.5 µg/mL
- S: solubility ([1]; H2O, 4 h, 240 min): 12.4 µg/mL
- S: solubility ([1]; H2O, 24 h, 1440 min): 4.5 µg/mL
- S: solubility ([1]; SGF, 1 h, 60 min): 125.1 µg/mL
- S: solubility ([1]; SGF, 2 h, 120 min): 100.2 µg/mL
- S: solubility ([1]; SGF, 4 h, 240 min): 84.6 µg/mL
- S: solubility ([1]; SGF, 24 h, 1440 min): 16.4 µg/mL
- FC: crystal form change ([1]; FaSSIF, 1 h): Yes
- FC: crystal form change ([1]; FaSSIF, 2 h): Yes
- FC: crystal form change ([1]; FaSSIF, 4 h): Yes
- FC: crystal form change ([1]; FaSSIF, 24 h): Yes
- FC: crystal form change ([1]; FeSSIF, 1 h): Yes
- FC: crystal form change ([1]; FeSSIF, 2 h): Yes
- FC: crystal form change ([1]; FeSSIF, 4 h): Yes
- FC: crystal form change ([1]; FeSSIF, 24 h): Yes
- FC: crystal form change ([1]; H2O, 1 h): Yes
- FC: crystal form change ([1]; H2O, 2 h): Yes
- FC: crystal form change ([1]; H2O, 4 h): Yes
- FC: crystal form change ([1]; H2O, 24 h): Yes
- FC: crystal form change ([1]; SGF, 1 h): Yes
- FC: crystal form change ([1]; SGF, 2 h): Yes
- FC: crystal form change ([1]; SGF, 4 h): Yes
- FC: crystal form change ([1]; SGF, 24 h): Yes
- pH ([1]; FaSSIF, 1 h): 2.78
- pH ([1]; FaSSIF, 2 h): 2.76
- pH ([1]; FaSSIF, 4 h): 2.77
- pH ([1]; FaSSIF, 24 h): 2.84
- pH ([1]; FeSSIF, 1 h): 4.69
- pH ([1]; FeSSIF, 2 h): 4.68
- pH ([1]; FeSSIF, 4 h): 4.70
- pH ([1]; FeSSIF, 24 h): 4.70
- pH ([1]; H2O, 1 h): 1.79
- pH ([1]; H2O, 2 h): 1.76
- pH ([1]; H2O, 4 h): 1.80
- pH ([1]; H2O, 24 h): 1.76
- pH ([1]; SGF, 1 h): 1.49
- pH ([1]; SGF, 2 h): 1.46
- pH ([1]; SGF, 4 h): 1.48
- pH ([1]; SGF, 24 h): 1.54
- vapor sorption values [2]: 2.324%
- HPLC results Relative to starting (%) ([3]; 25 °C/60% RH/open, 1 week): 100.0%
- HPLC results Purity (area%) ([3]; 25 °C/60% RH/open, 1 week, listed as Crystal form E of methanesulfonate): 98.39 area%
- HPLC results Relative to starting (%) ([3]; 40 °C/75% RH/open, 1 week): 100.0%
- HPLC results Purity (area%) ([3]; 40 °C/75% RH/open, 1 week, listed as Crystal form E of methanesulfonate): 98.39 area%
- HPLC results Purity (area%) [3, 4]: 98.37 area%
- HPLC results Relative to starting (%) [3, 4]: 100.0%
- HPLC results Purity (area%) ([3]; Starting, listed as Crystal form E of methanesulfonate): 98.36 area%
- Crystal form ([3]; XRPD after 25 °C/60% RH/open, 1 week, listed as Crystal form E of methanesulfonate): Crystal form E of methanesulfonate
- Crystal form ([3]; XRPD after 40 °C/75% RH/open, 1 week, listed as Crystal form E of methanesulfonate): Crystal form E of methanesulfonate
- Crystal form ([3]; XRPD after 80 °C/sealed, 1 day, listed as Crystal form E of methanesulfonate): Crystal form E of methanesulfonate
